Holding throughout (experiment): Poison Plate Assay
What all share (assay type): cell-based

Assay [1] has as its system Aspergillus niger CBS554.65. The note with it: CBS554, 336 h, read-out: MIC-values in ppm. On the procedure:
(§1) • Name of component: sodium pyrithione (I-a) • PEI 1300 (II-a) having an average molecular weight of approximately 1300 • PEI 70000 (II-b) having an average molecular weight of approximately 70000 • PEI 750000 (II-c) having an average molecular weight of approximately 750000 • Test models: Fungi: to each well of a 24-well microtiter plate, 1000 μl of a rich (Potato Dextrose Agar, PDA: 4 g potato infusion, 20 g bacto dextrose and 15 g bacto agar in 1 liter deionised water) containing the appropriate combination of the test compounds in one of the concentrations of a dose series is added. The nutrient medium is inoculated with the test fungi by adding a spore/mycelium suspension (10 μl) or a small piece of agar from the margin of an actively growing colony and incubated under dark at 27° C. with 70% relative humidity. The growth of the fungi is evaluated after two weeks. • Concentrations: a 24-step doses series is applied, each step being 0.75 times the previous step, as follows: 25.00−18.75 . . . 0.04−0.03 ppm • Test combinations:
(§2) A. G. Nass (1957) “Some aspects of the notions additivity, synergism and antagonism in the simultaneous activity of two antibacterial agents in vitro” Arch. intern. Pharmacodynamie 109: 211-228; Steinberg, D. C. (2000) “Measuring synergy” cosmetics & Toiletries 115(11): 59-62; which is calculated as follows for two compounds A and B: […]
(§3) When the SI is equal to 1.0, additivity is indicated. […].

The test system of assay [2] is Trichoderma viride CBS189.79. The note with it: CBS189, 336 h. How it is done:
as §1, §2, §3

A further assay relates to Humicola grisea MG28. The note with it: Mycothermus thermophilus, MG28, 336 h, read-out: MIC-values in ppm. How it is done:
as §1, §2, §3

The subject of assay [3] is Colletotrichum musae MUCL nr2. As to conditions: MUCLNR2, 336 h. On the procedure: as §1, §2, §3
The mark [4] stands for this setting: read-out: MIC-values in ppm, Table 1, (I-a) with PEI 1300 (II-a), PDA, 27° C., growth evaluated after two weeks.
The mark [5] stands for this setting: read-out: MIC-values in ppm, Table 2, (I-a) with PEI 70000 (II-b), PDA, 27° C., growth evaluated after two weeks.

Like-named read-outs stand apart in the source and are kept apart here.

Consider `[O-][n+]1ccccc1S` [I-a, sodium pyrithione], for which the MIC was determined as 0.25 µg/mL in assay [1]; 1.06 µg/mL in assay [2] (setting [4]); 1.06 µg/mL in assay [2] (setting [5]); 0.59 µg/mL in assay [2] (read-out: MIC-values in ppm, Table 3, (I-a) with PEI 750000 (II-c), PDA, 27° C., growth evaluated after two weeks); 0.45 µg/mL with Humicola grisea MG28; 0.06 µg/mL in assay [3] (setting [4]). Moreover, the MIC in assay [3] (setting [5]) amounted to 0.08 µg/mL.

The record behind these values is patent US9237749B2, “Antimicrobial combinations of pyrion compounds with polyethyleneimines” (Janssen Pharmaceutica N.V., priority 2010, dated 2016).
